Test results published in US9458428B2, “Methods and compositions for the rapid production of retinal pigmented epithelial cells from pluripotent cells” (The Regents of the University of California, priority 2012, dated 2016).
Ends that are not written are not given here.

B1: Activin A: Recombinant Activin A, media additive (protein, UniProt P08476 311-426, looked up)
Inhibin beta A chain: GLECDGKVNICCKKQFFVSFKDIGWNDWIIAPSGYHANYCEGECPSHIAGTSGSSLSFHSTVINHYRMRGHSPFANLKSCCVPTKLRPMSMLYYDDGQNIIKKDIQNMIVEECGCS

How the values were obtained:
pluripotent stem cells [1] = assay: qPCR gene expression, early eye field differentiation, day 4; format: cell-based, human; conditions: for expression of early neural/early eye field marker Lhx2 / expression of early neural/early eye field marker Rax / expression of the pluripotency genes Oct4 and Nanog: day 4, added to IGF1, Noggin, Dkk1 and bFGF, compared with controls; for expression of the pluripotency genes Oct4 and Nanog: 10 mM nicotinamide or 5 mM 3-aminobenzamide
Procedure: (§1) Pluripotent stem cells were passaged directly onto Matrigel (BD Biosciences) in DMEM/F12 with 1×B27, 1×N2, and 1×NEAA (Invitrogen). From days 0 to 2, 50 ng/ml Noggin, 10 ng/ml Dkk1, and 10 ng/ml IGF1 (R&D Systems Inc., Minneapolis, Minn., http://www.rndsystems.com) and in some experiments 10 mM nicotinamide or 5 mM 3-aminobenzamide (Sigma-Aldrich) were added to the base medium. From days 2 to 4, 10 ng/ml Noggin, 10 ng/ml Dkk1, 10 ng/ml IGF1, and 5 ng/ml bFGF and in some experiments 10 mM nicotinamide or 5 mM 3-aminobenzamide were added to the base medium. From days 4 to 6, 10 ng/ml Dkk1 and 10 ng/ml IGF1 and in some experiments 100 ng/ml Activin A (R&D Systems) were added to the base medium. From days 6 to 14, 100 ng/ml Activin A, 10 μM SU5402 (EMD Millipore, Darmstadt, Germany, http://www.emdmillipore.com), and […] VIP (Sigma-Aldrich) were added to the base medium. Control experiments were also performed in base media alone (DMEM/F12, B27, N2, and NEAA).
(§2) Quantitative Real-Time Polymerase Chain Reaction Total RNA of RPE marker genes was isolated using primers based upon the mRNA sequences of such genes. QPCR methods were carried out with the RNeasy Plus Mini Kit (Qiagen, Hilden, Germany, http://www.qiagen.com). cDNA was synthesized from 1 μg of RNA using the iScript cDNA Synthesis Kit (Bio-Rad, Hercules, Calif., http://www.bio-rad.com). Primer pairs were designed to create a 75-200-base pair product (Beacon Design 4.0; Premier Biosoft International, Palo Alto, Calif., http://www.premierbiosoft.com). Quantitative real-time polymerase chain reaction (PCR) was carried out on a Bio-Rad MyIQ Single Color Real-Time PCR Detection System using the SYBR Green method, as described in Woo T H, Patel B K, Cinco M et al. Identification of Leptospira biflexa by real-time homogeneous detection of rapid cycle PCR product. J Microbiol Methods 1999; 35:23-30. Triplicate 20-μl reactions were run in a 96-well plate with half of the cDNA synthesis reaction used per plate. Primer specificity was confirmed by melting temperature analysis, gel electrophoresis, and direct sequencing (Iowa State DNA Facility, Ames, Iowa). The data were normalized to the geometric mean of the “housekeeping” genes: glyceraldehyde phosphate dehydrogenase (GAPDH), hydroxymethylbilane synthase (HMBS), and glucose phosphate isomerase (GPI), as described in Radeke M J, Peterson K E, Johnson L V et al. Disease susceptibility of the human macula: Differential gene transcription in the retinal pigmented epithelium/choroid. Exp Eye Res 2007; 85:366-380.

early eye field cells [2] = assay: qPCR gene expression, RPE specification of early eye field cells, day 10; format: cell-based, human; conditions: for gene expression of Mitf / expression of Rax: day 10; for gene expression of Mitf: Activin A added days 4-10, SU5402 or VIP days 6-10
Procedure: as §1, §2

[3] = molecular target: myosin light-chain kinase; conditions: cited from earlier work
[4] = molecular target: cAMP-dependent protein kinase; conditions: cited from earlier work
PKC = conditions: cited from earlier work
dissociated RPE = assay: Rescue of RPE after single-cell dissociation on day 14; format: cell-based, human; conditions: 10 μM for the first 3 days after passage
Procedure: The cells were mechanically enriched by scraping away cells with non-RPE morphology. Subsequently, the remaining RPE were digested using TrypLE Express (Invitrogen) for ˜5 minutes at 37° C. The cells were passed through a 30-μm single-cell strainer and seeded onto Matrigel-coated tissue culture plastic, Transwell membranes (Corning Enterprises, Corning, N.Y., http://www.corning.com), or CC2-treated chambered slides. Enriched cells were cultured in DMEM-high glucose with 1% fetal bovine serum (FBS), GlutaMAX, and sodium pyruvate (Invitrogen) for 30 days, as described in Ahmado A, Carr A J, Vugler A A et al. Induction of differentiation by pyruvate and DMEM in the human retinal pigment epithelium cell line ARPE-19. Invest Ophthalmol Vis Sci 2011; 52:7148-7159.
Differentiated Cells Can Be Enriched on Day 14 to Homogenous Cultures of Functional RPE. To generate more homogenous populations of RPE, readily visible sheets on day 14 were mechanically isolated, dissociated into single cells, and replated in an RPE medium described in Buchholz D E, Hikita S T, Rowland T J et al. Derivation of functional retinal pigmented epithelium from induced pluripotent stem cells. STEM CELLS 2009; 27:2427-2434, on Matrigel-coated tissue culture plastic, chambered slides, or Transwell inserts. […]

pluripotent stem cells [5] = assay: Cell morphology during early eye field differentiation; format: cell-based, human; conditions: compared with control cells
Procedure: as §1

early eye field cells [6] = assay: Pigmentation of differentiating cultures; format: cell-based, human; conditions: cultures containing VIP, between days 10 and 14
Procedure: as §1

[7] = Activin A added days 4-10, SU5402 days 6-10

Row | Molecule | expression of early neural/early eye field marker Lhx2 (pluripotent stem cells [1]) | expression of early neural/early eye field marker Rax (pluripotent stem cells [1]) | expression of the pluripotency genes Oct4 and Nanog (pluripotent stem cells [1]) | gene expression of Mitf (early eye field cells [2]) | expression of Rax (early eye field cells [2]; [7]) | also measured
1 | NC(=O)c1cccc(N)c1 [3-aminobenzamide] | significantly increased | significantly increased | reduced |  |  | ability to recapitulate the effects of nicotinamide (pluripotent stem cells [1]; day 4, overall): partially recapitulate the effects of nicotinamide
2 | Cc1c[nH]c(/C=C2\C(=O)Nc3ccccc32)c1CCC(=O)O [SU5402] |  |  |  | little effect | little effect | expression of Rax (early eye field cells [2]; SU5402 in combination with Activin A): further decreased
3 | C[C@@H](N)[C@H]1CC[C@H](C(=O)Nc2ccncc2)CC1 [Y-27632] |  |  |  |  |  | Ki [3]: > 250 µM; Ki [4]: 25 µM; Ki (PKC): […]; RPE survival and maturation after single-cell dissociation (dissociated RPE): […]
4 | NC(=O)c1cccnc1 [nicotinamide] | increased | the increase in Rax was not significant | significantly decreased |  |  | cell morphology (pluripotent stem cells [5]): rapidly adopted a radial/rosette morphology; Pax6(−5a) expression (pluripotent stem cells [1]; day 4, nicotinamide against control conditions): similar
5 | VIP: vasoactive intestinal peptide, a cyclic AMP upregulator (HSDAVFTDNYTRLRKQMAVKKYLNSILN; ends and bridges not checked; UniProt P01282 125-152, looked up) |  |  |  | significantly increased |  | expression of RPE marker gene PEDF (early eye field cells [2]; VIP added days 6-10): significantly increased; expression of RPE marker gene tyrosinase (early eye field cells [2]; VIP added days 6-10): significantly increased; pigmentation (early eye field cells [6]): increased
6 | B1 |  |  |  | little effect | significantly decreased | 
